How the values were obtained:
[1] = target: T1, HIV protease (Human immunodeficiency virus type 1 group M subtype B, UniProt P04585); experiment: HIV protease enzyme assay; type: biochemical
T1 construct: HIV protease is diluted in the assay buffer to a final enzyme concentration of 12.3 nanomolar, based on a molecular weight of 10,780
Excerpt: The compounds of the present invention are effective HIV protease inhibitors. Utilizing an enzyme assay as described below, the compounds set forth in the examples herein disclosed inhibited the HIV enzyme. The preferred compounds of the present invention and their calculated IC50 (inhibiting concentration 50%, i.e., the concentration at which the inhibitor compound reduces enzyme activity by 50%) values are shown in Table 17. The enzyme method is described below. The substrate is 2-Ile-Nle-Phe(p-NO2)-Gln-ArgNH2. The positive control is MVT-101 (Miller, M. et al, Science, 246, 1149 (1989)] The assay conditions are as follows:
20 mM sodium phosphate, pH 6.4
The above described substrate is dissolved in DMSO, then diluted 10 fold in assay buffer. Final substrate concentration in the assay is 80 μM.
HIV protease is diluted in the assay buffer to a final enzyme concentration of 12.3 nanomolar, based on a molecular weight of 10,780.
The final concentration of DMSO is 14% and the final concentration of glycerol is 18%. The test compound is dissolved in DMSO and diluted in DMSO to 10x the test concentration; 10 μl of the enzyme preparation is added, the materials mixed and then the mixture is incubated at ambient temperature for 15 minutes. The enzyme reaction is initiated by the addition of 40 μl of substrate. The increase in fluorescence is monitored at 4 time points (0, 8, 16 and 24 minutes) at ambient temperature. Each assay is carried out in duplicate wells.

[2] = in vitro; type: cell-based; settings: human, cem cells
Protocol: Methods, 20, 309-321 (1988). Assays can be performed in 96-well tissue culture plates. […] Several wells receive culture medium without virus (uninfected control cells). […] Either azidothymidine (AZT) or dideoxyinosine (ddI) is included as a positive drug control. […] DMSO is added to all control wells at an appropriate concentration. […] To each sample is added 100 μl of 10% sodium dodecylsulfate in 0.01N HCl to lyse the cells, and samples are incubated overnight.

inhibition at 10 µM [1] [%] | SMILES | further results
38 | CC(C)CN(C[C@@H](O)[C@H](Cc1ccccc1)NC(=O)OCc1ccccc1)S(=O)(=O)NCCOCc1ccccc1 [L] | –
– | CC(C)CN(C[C@@H](O)[C@H](Cc1ccccc1)NC(=O)[C@H](C)CS(C)(=O)=O)S(=O)(=O)NC(C)(C)C [Example 14] | IC50 ([1]; Table 9, HIV protease enzyme assay, pH 6.4, substrate 80 μM): 140 nM
60 | CC(C)(C)NS(=O)(=O)N(C[C@@H](O)[C@H](Cc1ccccc1)NC(=O)OCc1ccccc1)C1CCCCC1 [K] | –
– | CC(C)CN(C[C@@H](O)[C@H](Cc1ccccc1)NC(=O)OCc1ccccc1)S(=O)(=O)Nc1ccccc1 [E] | CC50 at 168 h [2]: 7.5 µM
